From publication PMC6264390, “Design, Synthesis and Structure-activity Studies of Rhodanine Derivatives as HIV-1 Integrase Inhibitors” (Molecules, 2010)
Where two headings read alike, the source gives them in different places.

Key:
HIV-1 IN = biological target: T1, HIV-1 IN (Human immunodeficiency virus type 1 group M subtype B, UniProt P12497); experiment: In vitro IN inhibition assay (3’-processing and strand transfer); type: biochemical; settings: for IC50: Mn2+ cofactor (7.5 mM MnCl2); for IN inhibition (in words): highest concentration tested 100 μM
T1 construct: pre-incubated with purified recombinant IN (at a final concentration of 200 nM); made in house
Description: (§1) All compounds were dissolved in DMSO to a final stock concentration of 10 mM and stored at −20 °C. Initial screening for IN inhibitory effect was done at 100 μM and dilutions were made in DMSO. Compounds showing at least 50% inhibition at 100 μM were selected for IC50 determinations. γ-[^32P]-ATP was purchased from Perkin Elmer (Waltham, MA, USA). The expression system for wild-type IN was a generous gift of Dr. Robert Craigie, Laboratory of Molecular Biology, NIDDK, NIH (Bethesda, MD, USA). His-tagged APE1 was purified from an expression system kindly provided by Dr. Tom Curran, Department of Developmental Neurobiology, St. Jude Children’s Research Hospital (Memphis, TN, USA).
(§2) 21-mer oligonucleotides used in IN inhibition assay [21top (5’-[…]-3’) and 21bot (5’-ACTGCTAGAGATTTTCCA CAC-3’)] were purchased from Integrated DNA Technologies (Coralville, IA, USA) and purified by UV shadowing on polyacrylamide gel. The oligonucleotides used in APE1 inhibition assay [top strand: 5′-ATTTCACCGGTACG(F)TCTAGAATC CG-3′ containing the tetrahydrofuran synthetic abasic residue (F), and bottom strand: 3′-TAAAGTGG CCATGC(C)AGATCTTAGGC-5′] were purchased from The Midland Certified Reagent Company (Midland, TX, USA). To analyze the extent of 3’-processing and strand transfer with 5’-end labeled substrates, 21top was 5’-end labeled using T4 polynucleotide kinase (Epicentre, Madison, WI, USA) and [γ-^32P]-ATP (Perkin Elmer, Waltham, MA, USA). The kinase was heat-inactivated at 95 °C and 21bot was added in […]. The reaction mixture was allowed to cool slowly to room temperature, and purified through a spin-25 minicolumn (USA Scientific, Ocala, FL, USA) to separate annealed double-stranded oligonucleotide from unincorporated material. The oligonucleotides used in the APE1 inhibition assay were labeled using a similar protocol.
To determine the extent of 3’-processing and strand transfer, the test compounds, diluted in DMSO, were pre-incubated with purified recombinant IN (at a final concentration of 200 nM) in the reaction buffer [50 mM NaCl, 1 mM HEPES (pH 7.5), 50 μM EDTA, 50 μM dithiothreitol, 10% glycerol (w/v), 7.5 mM MnCl2, 0.1 mg mL–1 bovine serum albumin, 10 mM 2-mercaptoethanol, 10% dimethyl sulfoxide, and 25 mM MOPS (pH 7.2)] at 30 °C for 30 min. For Mg^2+ assay, 7.5 mM MgCl2 was substituted for MnCl2 and an optimal concentration of PEG was included in the reaction buffer. Following the pre-incubation, 20 nM of the 5’-end ^32P-labeled linear oligonucleotide substrate was added to the reaction mixture and incubated for an additional 1 h. Reactions were quenched by addition of 50X loading dye (98% deionized formamide, 10 mM EDTA, 0.025% xylene cyanol, and 0.025 % bromophenol blue). An aliquot was subjected to electrophoresis on a denaturing polyacrylamide gel (0.09 M tris–borate, pH 8.3, 2 mM EDTA, 20% acrylamide, 8M urea). Gels were dried under vacuum, exposed in a PhosphorImager cassette and visualized with a Typhoon 8610 Variable Mode Imager (Amersham Biosciences). Quantification was done with Image Quant 5.2 software. Percent inhibition (%I) was calculated using the following equation: %I = 100 × [1 − (D − C) / (N − C)] where C, N, and D are the fractions of 21-mer substrate converted into 19-mer (product of 3’-processing) or strand-transfer products for DNA alone, DNA plus IN, and DNA, IN plus test compound, respectively. IC50 values were determined by plotting the logarithm of test compound concentrations as a function of %I to obtain the concentration that produced 50% inhibition.

[1] = biological target: T2, human apurinic/apyrimidinic endonuclease 1 (APE1) (Homo sapiens, UniProt P27695); experiment: APE1 inhibition assay; type: biochemical
T2 construct: His; made in house
Description: as §1, §2
APE1 inhibition assay was performed as previously described. To determine the extent of endonucleolytic cleavage of the abasic residue, the test compounds, diluted in DMSO, were preincubated with recombinant APE1 at a final concentration of 0.05 nM in the reaction buffer [50 mM NaCl, 1 mM HEPES, pH 7.5, 50 μM EDTA, 50 μM dithiothreitol, 10% glycerol (w/v), 7.5 mM MnCl2, 0.1 mg mL‑1 bovine serum albumin, 10 mM 2-mercaptoethanol, 10% DMSO, and 25 mM MOPS, pH 7.2] at 30 °C for 10 min. Following preincubation, 200 nM of the 5′-end ^32P-labeled linear oligonucleotide substrate was added, and incubated for an additional 10 minutes. Reactions were quenched by the addition of an equal volume (16 μL) of loading dye (98% deionized formamide, 10 mM EDTA, 0.025% xylene cyanol, and 0.025% bromophenol blue). An aliquot (5 μL) was electrophoresed on a denaturing 20% polyacrylamide gel (0.09 M tris-borate pH 8.3, 2 mM EDTA, 20% acrylamide, 8 M urea). The gels were dried, exposed in a PhosphorImager cassette and analyzed using a Typhoon 8610 Variable Mode Imager (Amersham Biosciences). Quantification of enzyme inhibition was done using Image Quant 5.2 software. The percent inhibition (% I) was calculated using the following equation: %I = 100 × [1 − (D − C) / (N − C)] where C, N, and D are the fractions of 26-mer substrate converted to 13-mer incision products (or integration products) for DNA alone, DNA plus APE1, and DNA, APE1 plus test compound, respectively. IC50 values were determined by plotting the logarithm of compound concentration as a function of %I to obtain the concentration that produced 50% inhibition. An optimum concentration of APE1 enzyme, at which there is complete conversion of the synthetic abasic-site containing oligonucleotide substrate to its cleaved product without subsequent exonuclease activity, was used in the assay.

[2] = read-out: Inhibition of IN catalytic activity IC50, 3’-Processing
[3] = read-out: Inhibition of IN catalytic activity IC50, Strand Transfer
[4] = read-out: Inhibition of APE1 catalytic activity IC50

T2 sequence (P27695 whole entry): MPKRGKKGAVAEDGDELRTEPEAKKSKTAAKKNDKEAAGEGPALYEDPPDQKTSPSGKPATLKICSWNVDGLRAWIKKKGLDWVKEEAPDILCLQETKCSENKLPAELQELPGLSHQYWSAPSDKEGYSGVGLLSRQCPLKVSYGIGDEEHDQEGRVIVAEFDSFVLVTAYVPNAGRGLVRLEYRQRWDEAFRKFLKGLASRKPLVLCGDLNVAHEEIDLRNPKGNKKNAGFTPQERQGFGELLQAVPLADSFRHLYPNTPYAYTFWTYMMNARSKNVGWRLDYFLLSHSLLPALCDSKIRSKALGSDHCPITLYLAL

Row | Structure (SMILES) | IC50 (HIV-1 IN; [2]) | IC50 (HIV-1 IN; [3]) | IC50 [1, 4] | melting point | IC50 [1] | IN inhibition (in words) (HIV-1 IN)
1 | O=C(Nc1ccc(O)cc1)C(=S)NN1C(=O)C(=Cc2cc(Cl)ccc2O)SC1=S [Compound 41, 2-{[5-(5-Chloro-2-hydroxybenzylidene)-4-oxo-2-thioxo-1,3-thiazolidin-3-yl]amino}-N-(4-hydroxy-phenyl)-2-thioxoacetamide] | > 100 µM | 67 µM | > 100 µM | 220 to 221 °C |  | 
2 | O=C(Nc1ccc(O)cc1)C(=S)NN1C(=O)C(=Cc2cccc([N+](=O)[O-])c2O)SC1=S [Compound 43, 2-{[5-(2-Hydroxy-3-nitrobenzylidene)-4-oxo-2-thioxo-1,3-thiazolidin-3-yl]amino}-N-(4-hydroxy-phenyl)-2-thioxoacetamide] | > 100 µM | 88 µM | > 100 µM | 179 to 180 °C |  | 
3 | CCOc1cc(-n2cnnn2)c(OCC)cc1NC(=O)C(=S)NN1C(=O)C(=Cc2cc(OC)c(OC)c(OC)c2)SC1=S [Compound 23, N-[2,5-diethoxy-4-(1H-tetrazol-1-yl)phenyl]-2-{[4-oxo-2-thioxo-5-(3,4,5-trimethoxybenzylidene)-1,3-thiazolidin-3-yl]amino}-2-thioxoacetamide] | > 100 µM | > 100 µM | 83 µM | 158 to 159 °C |  | 
4 | COc1cc(NC(=O)C(=S)NN2C(=O)C(=Cc3ccc([N+](=O)[O-])o3)SC2=S)cc(OC)c1OC [Compound 19, 2-{5-[(5-Nitro-2-furyl)methylene]-4-oxo-2-thioxo-1,3-thiazolidin-3-yl}amino-2-thioxo-N-(3,4,5-tri-methoxyphenyl)acetamide] | 40 ± 28 µM | 25 ± 11 µM | > 100 µM | 201 to 202 °C |  | 
5 | O=C(Nc1cccc([N+](=O)[O-])c1)C(=S)NN1C(=O)C(=Cc2ccc([N+](=O)[O-])o2)SC1=S [Compound 14, 2-{-5-[(5-Nitro-2-furyl)methylene]-4-oxo-2-thioxo-1,3-thiazolidin-3-yl}amino-N-(3-nitrophenyl)-2-thioxoacetamide] | 58 µM | 58 µM |  | 152 to 153 °C | > 100 µM | 
6 | COc1cc(NC(=O)C(=S)NN2C(=O)C(=Cc3cc(N=Nc4ccccc4)ccc3O)SC2=S)cc(OC)c1OC [Compound 34, 2-[(5-{2-Hydroxy-5-[phenyldiazenyl]benzylidene}-4-oxo-2-thioxo-1,3-thiazolidin-3-yl)amino]-2-thioxo-N-(3,4,5-trimethoxyphenyl)acetamide] | 33 ± 19 µM | 26 ± 14 µM | > 100 µM | 149 to 150 °C |  | 
7 | COc1cc(NC(=O)C(=S)NN2C(=O)C(=Cc3cc(Cl)ccc3O)SC2=S)cc(OC)c1OC [Compound 27, 2-{[5-(5-Chloro-2-hydroxybenzylidene)-4-oxo-2-thioxo-1,3-thiazolidin-3-yl]amino}-2-thioxo-N-(3,4,5-trimethoxyphenyl)acetamide] | 83 ± 25 µM | 20 µM | > 100 µM | 216 to 217 °C |  | 
8 | COc1cc(NC(=O)C(=S)NN2C(=O)C(=Cc3cc(Br)cc(Br)c3O)SC2=S)cc(OC)c1OC [Compound 37, 2-{[5-(3,5-Dibromo-2-hydroxybenzylidene)-4-oxo-2-thioxo-1,3-thiazolidin-3-yl]amino}-2-thioxo-N-(3,4,5-trimethoxyphenyl)acetamide] | 33 ± 7 µM | 35 ± 6 µM | > 100 µM | 221 to 222 °C |  | 
9 | CCOc1cccc(C=C2SC(=S)N(NC(=S)C(=O)Nc3cc(OC)c(OC)c(OC)c3)C2=O)c1O [Compound 31, 2-{[5-(3-Ethoxy-2-hydroxybenzylidene)-4-oxo-2-thioxo-1,3-thiazolidin-3-yl]amino}-2-thioxo-N-(3,4,5-trimethoxyphenyl)acetamide] | > 100 µM | > 100 µM | > 100 µM | 231 to 232 °C |  | 
10 | O=C(Nc1ccc(O)cc1)C(=S)NN1C(=O)C(=Cc2cc(Br)ccc2O)SC1=S [Compound 42, 2-{[5-(5-Bromo-2-hydroxybenzylidene)-4-oxo-2-thioxo-1,3-thiazolidin-3-yl]amino}-N-(4-hydroxy-phenyl)-2-thioxoacetamide] | > 100 µM | > 100 µM | > 100 µM | 190 to 191 °C |  | 
11 | O=C(Nc1cccc([N+](=O)[O-])c1)C(=S)NN1C(=O)C(=Cc2ccc(Cl)cc2)SC1=S [Compound 8, 2-{[5-(4-Chlorobenzylidene)-4-oxo-2-thioxo-1,3-thiazolidin-3-yl]amino}-N-(3-nitrophenyl)-2-thioxo-acetamide] | > 100 µM | > 100 µM | 76 ± 5 µM | 221 to 222 °C |  | lacked any IN inhibitory activity
12 | O=C(Nc1ccccc1)C(=S)NN1C(=O)C(=Cc2c[nH]c3ccccc23)SC1=S [Compound 10, 2-{[5-(1H-indol-3-ylmethylene)-4-oxo-2-thioxo-1,3-thiazolidin-3-yl]amino}-N-phenyl-2-thioxo-acetamide] | > 100 µM | > 100 µM | > 100 µM | 206 to 207 °C |  | abolished any activity
13 | C=CCc1cccc(C=C2SC(=S)N(NC(=S)C(=O)Nc3cc(OC)c(OC)c(OC)c3)C2=O)c1O [Compound 32, 2-{[5-(3-Allyl-2-hydroxybenzylidene)-4-oxo-2-thioxo-1,3-thiazolidin-3-yl]amino}-2-thioxo-N-(3,4,5-trimethoxyphenyl)acetamide] | 82 ± 5 µM | 83 ± 3 µM | > 100 µM | 174 to 175 °C |  | 
14 | O=C(Nc1cc(C(F)(F)F)cc(C(F)(F)F)c1)C(=S)NN1C(=O)C(=Cc2ccc([N+](=O)[O-])o2)SC1=S [Compound 16, N-[3,5-bis(trifluoromethyl)phenyl]-2-{5-[(5-nitro-2-furyl)methylene]-4-oxo-2-thioxo-1,3-thiazolidin-3-yl}amino-2-thioxoacetamide] | > 100 µM | 74 ± 20 µM | > 100 µM | 195 to 196 °C |  | 
